Where a SMILES comes first, the peptide text is derived from it. Bridges are numbered along the chain shown (N, C = ends). [ ]: non-standard residue; d: D form. The star is where a group is joined. hPhe(3-Cl-4-CF3) = N[C@@H](CCc1ccc(C(F)(F)F)c(Cl)c1)C(=O)O; NPrPhe(4-CF3) = CCCN[C@@H](Cc1ccc(C(F)(F)F)cc1)C(=O)O; NMeGly(cPent) = CN[C@H](C(=O)O)C1CCCC1; Pro(4,4-F2) = O=C(O)[C@@H]1CC(F)(F)CN1; Hyp = O=C(O)[C@@H]1C[C@@H](O)CN1; NMeL = CN[C@@H](CC(C)C)C(=O)O; Morpholide = C1CN(*)CCO1; Ac5c = NC1(C(=O)O)CCCC1; Aze = O=C(O)[C@@H]1CCN1; Ac4c = NC1(C(=O)O)CCC1; Sar = CNCC(=O)O

The record followed here is patent EP4603105A1, “PHARMACEUTICAL COMPOSITION CONTAINING CYCLIC COMPOUND HAVING SELECTIVE KRAS INHIBITORY EFFECT AGAINST HRAS AND NRAS” (CHUGAI SEIYAKU KABUSHIKI KAISHA, priority 2022, dated 2024).

For assay [1], the system named is human lung cancer strain NCI-H441. It is filed as cell-based. Summed up:
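Step one: dispense the test compound in serial DMSO dilutions. Step three: add the reagent and measure […].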

Assay [2] has as its target GDP-bound NRAS wild-type protein (Homo sapiens, UniProt P01111). Kind of assay: Binding to NRAS by surface plasmon resonance (SPR), KD and KD ratio to KRAS. Particulars: ratio of KD for GDP-bound NRAS wild-type protein to KD for KRAS. Summed up:
(§1)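 Captured GDP-RAS (~100–300 RU) was exposed to increasing compound concentrations, 75 s per step, in running buffer with 10 µM GDP, 10 mM MgCl2 and 4% DMSO at pH 7.4.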
Background: Surface plasmon resonance follows binding to a sensor surface in real time, without labels.

In another assay the target is HRAS wild-type protein (Homo sapiens, UniProt P01112). Kind of assay: Binding to HRAS by surface plasmon resonance (SPR), KD and KD ratio to KRAS. To be noted: ratio of KD for HRAS wild-type protein to KD for KRAS. In a few lines:
as §1

Sequence of GDP-bound NRAS wild-type protein (P01111 whole entry): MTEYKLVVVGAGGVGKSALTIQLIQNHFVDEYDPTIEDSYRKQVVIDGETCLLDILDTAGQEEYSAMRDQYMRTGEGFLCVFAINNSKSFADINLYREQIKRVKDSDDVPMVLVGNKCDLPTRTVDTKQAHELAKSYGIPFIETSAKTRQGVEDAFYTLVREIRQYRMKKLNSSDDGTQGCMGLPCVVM
Sequence of HRAS wild-type protein (P01112 whole entry): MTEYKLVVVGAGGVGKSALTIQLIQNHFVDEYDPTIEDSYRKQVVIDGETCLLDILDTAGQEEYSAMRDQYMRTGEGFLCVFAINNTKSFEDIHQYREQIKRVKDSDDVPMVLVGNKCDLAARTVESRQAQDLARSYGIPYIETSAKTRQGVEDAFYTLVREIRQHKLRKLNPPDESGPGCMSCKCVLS

Broadly, the IC50 is the concentration that inhibits the measured activity by half. Read a low IC50 as higher potency. `CCCN1C(=O)[C@@H]2CCN2C(=O)CN(C)C(=O)[C@H]([C@@H](C)CC)NC(=O)[C@H](CC(C)C)N(C)C(=O)C[C@@H](C(=O)N2CCOCC2)NC(=O)[C@H](C2CCCC2)N(C)C(=O)C2(CCC2)NC(=O)[C@@H]2CC(F)(F)CN2C(=O)[C@H](CCc2ccc(C(F)(F)F)c(Cl)c2)NC(=O)CN(C)C(=O)[C@@H]1Cc1ccc(C(F)(F)F)cc1` [PP0352] ([NMeL]I[Sar][Aze][NPrPhe(4-CF3)][Sar][hPhe(3-Cl-4-CF3)][Pro(4,4-F2)][Ac4c][NMeGly(cPent)]D-Morpholide; lactam N-11) showed an IC50 in assay [1] of 72.4 nM. Besides, in assay [2], the “NRAS /KRAS” value is “C (A compound having a KD ratio of 0.1 or more and less than 3 is denoted as C)”. Besides, at HRAS wild-type protein, the “HRAS /KRAS” value is “B (a compound having 3 or more and less than 10 is denoted as B)”.
As to `CCCN1C(=O)[C@@H]2CCN2C(=O)CN(C)C(=O)[C@H]([C@@H](C)CC)NC(=O)[C@H](CC(C)C)N(C)C(=O)C[C@@H](C(=O)N2CCOCC2)NC(=O)[C@H](C2CCCC2)N(C)C(=O)C2(CCCC2)NC(=O)[C@@H]2C[C@@H](OCC)CN2C(=O)[C@H](CCc2ccc(C(F)(F)F)c(Cl)c2)NC(=O)CN(C)C(=O)[C@@H]1Cc1ccc(C(F)(F)F)cc1` [PP0353] ([NMeL]I[Sar][Aze][NPrPhe(4-CF3)][Sar][hPhe(3-Cl-4-CF3)][Hyp](Et)[Ac5c][NMeGly(cPent)]D-Morpholide; lactam N-11), inhibition in assay [1] was half-maximal at 46.7 nM (IC50). Also, the “NRAS /KRAS” value in assay [2] was “C (A compound having a KD ratio of 0.1 or more and less than 3 is denoted as C)”. Moreover, the “HRAS /KRAS” value on HRAS wild-type protein is “B (a compound having 3 or more and less than 10 is denoted as B)”.
The compound `CCCN1C(=O)[C@@H]2CCN2C(=O)CN(C)C(=O)[C@H]([C@@H](C)CC)NC(=O)[C@H](CC(C)C)N(C)C(=O)C[C@@H](C(=O)N2CCOCC2)NC(=O)[C@H](C2CCCC2)N(C)C(=O)C2(CCC2)NC(=O)[C@@H]2C[C@@H](OCC)CN2C(=O)[C@H](CCc2ccc(C(F)(F)F)c(Cl)c2)NC(=O)CN(C)C(=O)[C@@H]1Cc1ccc(C(F)(F)F)cc1` [PP0354] ([NMeL]I[Sar][Aze][NPrPhe(4-CF3)][Sar][hPhe(3-Cl-4-CF3)][Hyp](Et)[Ac4c][NMeGly(cPent)]D-Morpholide; lactam N-11) displayed an IC50 in assay [1] of 24.7 nM. Besides, in assay [2], the “NRAS /KRAS” value is “C (A compound having a KD ratio of 0.1 or more and less than 3 is denoted as C)”. On HRAS wild-type protein, the “HRAS /KRAS” value is “B (a compound having 3 or more and less than 10 is denoted as B)”.
With `CCCN1C(=O)CN(C)C(=O)CN(C)C(=O)[C@H]([C@@H](C)CC)NC(=O)[C@H](CC(C)C)N(C)C(=O)C[C@@H](C(=O)N(C)C)NC(=O)[C@H](C2CCCC2)N(C)C(=O)C2(CCCC2)NC(=O)[C@@H]2CCCN2C(=O)[C@H](CCc2ccc(C(F)(F)F)c(Cl)c2)NC(=O)CN(C)C(=O)[C@@H]1Cc1ccc(C(F)(F)F)cc1` [PP0355] ([NMeL]I[Sar][Sar][NPrPhe(4-CF3)][Sar][hPhe(3-Cl-4-CF3)]P[Ac5c][NMeGly(cPent)]D-NMe2; lactam N-11), it took 48.2 nM to reach half-maximal inhibition in assay [1] (IC50). Besides, in assay [2], the “NRAS /KRAS” value is “B (a compound having 3 or more and less than 10 is denoted as B)”. Moreover, the “HRAS /KRAS” value at HRAS wild-type protein was “B (a compound having 3 or more and less than 10 is denoted as B)”.
With `CCCN1C(=O)CN(C)C(=O)CN(C)C(=O)[C@H]([C@@H](C)CC)NC(=O)[C@H](CC(C)C)N(C)C(=O)C[C@@H](C(=O)N(C)C)NC(=O)[C@H](C2CCCC2)N(C)C(=O)C2(CCC2)NC(=O)[C@@H]2CCCN2C(=O)[C@H](CCc2ccc(C(F)(F)F)c(Cl)c2)NC(=O)CN(C)C(=O)[C@@H]1Cc1ccc(C(F)(F)F)cc1` [PP0356] ([NMeL]I[Sar][Sar][NPrPhe(4-CF3)][Sar][hPhe(3-Cl-4-CF3)]P[Ac4c][NMeGly(cPent)]D-NMe2; lactam N-11), the IC50 in assay [1] was found to be 99.4 nM. The “NRAS /KRAS” value in assay [2] was “B (a compound having 3 or more and less than 10 is denoted as B)”. In addition, on HRAS wild-type protein, the “HRAS /KRAS” value was “B (a compound having 3 or more and less than 10 is denoted as B)”.
As to `CCCN1C(=O)CN(C)C(=O)CN(C)C(=O)[C@H]([C@@H](C)CC)NC(=O)[C@H](CC(C)C)N(C)C(=O)C[C@@H](C(=O)N(C)C)NC(=O)[C@H](C2CCCC2)N(C)C(=O)C2(CCCC2)NC(=O)[C@@H]2CC(F)(F)CN2C(=O)[C@H](CCc2ccc(C(F)(F)F)c(Cl)c2)NC(=O)CN(C)C(=O)[C@@H]1Cc1ccc(C(F)(F)F)cc1` [PP0357] ([NMeL]I[Sar][Sar][NPrPhe(4-CF3)][Sar][hPhe(3-Cl-4-CF3)][Pro(4,4-F2)][Ac5c][NMeGly(cPent)]D-NMe2; lactam N-11), half-maximal inhibition in assay [1] (IC50) required 39.8 nM. In addition, the “NRAS /KRAS” value in assay [2] is “B (a compound having 3 or more and less than 10 is denoted as B)”. Moreover, the “HRAS /KRAS” value on HRAS wild-type protein was “B (a compound having 3 or more and less than 10 is denoted as B)”.
Compound `CCCN1C(=O)CN(C)C(=O)CN(C)C(=O)[C@H]([C@@H](C)CC)NC(=O)[C@H](CC(C)C)N(C)C(=O)C[C@@H](C(=O)N(C)C)NC(=O)[C@H](C2CCCC2)N(C)C(=O)C2(CCC2)NC(=O)[C@@H]2CC(F)(F)CN2C(=O)[C@H](CCc2ccc(C(F)(F)F)c(Cl)c2)NC(=O)CN(C)C(=O)[C@@H]1Cc1ccc(C(F)(F)F)cc1` [PP0358] ([NMeL]I[Sar][Sar][NPrPhe(4-CF3)][Sar][hPhe(3-Cl-4-CF3)][Pro(4,4-F2)][Ac4c][NMeGly(cPent)]D-NMe2; lactam N-11) showed an IC50 in assay [1] of 34.8 nM. Also, the “NRAS /KRAS” value in assay [2] was “B (a compound having 3 or more and less than 10 is denoted as B)”. For the same compound, the “HRAS /KRAS” value on HRAS wild-type protein is “C (A compound having a KD ratio of 0.1 or more and less than 3 is denoted as C)”.
In assay [1], `CCCN1C(=O)CN(C)C(=O)CN(C)C(=O)[C@H]([C@@H](C)CC)NC(=O)[C@H](CC(C)C)N(C)C(=O)C[C@@H](C(=O)N(C)C)NC(=O)[C@H](C2CCCC2)N(C)C(=O)C2(CCCC2)NC(=O)[C@@H]2C[C@@H](OCC)CN2C(=O)[C@H](CCc2ccc(C(F)(F)F)c(Cl)c2)NC(=O)CN(C)C(=O)[C@@H]1Cc1ccc(C(F)(F)F)cc1` [PP0359] ([NMeL]I[Sar][Sar][NPrPhe(4-CF3)][Sar][hPhe(3-Cl-4-CF3)][Hyp](Et)[Ac5c][NMeGly(cPent)]D-NMe2; lactam N-11) registered an IC50 of 33.1 nM. Besides, the “NRAS /KRAS” value in assay [2] is “B (a compound having 3 or more and less than 10 is denoted as B)”. The “HRAS /KRAS” value on HRAS wild-type protein was “B (a compound having 3 or more and less than 10 is denoted as B)”.
For `CCCN1C(=O)CN(C)C(=O)CN(C)C(=O)[C@H]([C@@H](C)CC)NC(=O)[C@H](CC(C)C)N(C)C(=O)C[C@@H](C(=O)N(C)C)NC(=O)[C@H](C2CCCC2)N(C)C(=O)C2(CCC2)NC(=O)[C@@H]2C[C@@H](OCC)CN2C(=O)[C@H](CCc2ccc(C(F)(F)F)c(Cl)c2)NC(=O)CN(C)C(=O)[C@@H]1Cc1ccc(C(F)(F)F)cc1` [PP0360] ([NMeL]I[Sar][Sar][NPrPhe(4-CF3)][Sar][hPhe(3-Cl-4-CF3)][Hyp](Et)[Ac4c][NMeGly(cPent)]D-NMe2; lactam N-11), in assay [1], the IC50 is 18 nM. The “NRAS /KRAS” value in assay [2] is “B (a compound having 3 or more and less than 10 is denoted as B)”. On HRAS wild-type protein, the “HRAS /KRAS” value is “C (A compound having a KD ratio of 0.1 or more and less than 3 is denoted as C)”.
In the case of `CCCN1C(=O)CN(C)C(=O)CNC(=O)[C@H]([C@@H](C)CC)NC(=O)[C@H](CC(C)C)N(C)C(=O)C[C@@H](C(=O)N(C)C)NC(=O)[C@H](C2CCCC2)N(C)C(=O)C2(CCCC2)NC(=O)[C@@H]2CCCN2C(=O)[C@H](CCc2ccc(C(F)(F)F)c(Cl)c2)NC(=O)CN(C)C(=O)[C@@H]1Cc1ccc(C(F)(F)F)cc1` [PP0361] ([NMeL]IG[Sar][NPrPhe(4-CF3)][Sar][hPhe(3-Cl-4-CF3)]P[Ac5c][NMeGly(cPent)]D-NMe2; lactam N-11), 69 nM corresponded to half-maximal inhibition in assay [1] (IC50). Further, the “NRAS /KRAS” value in assay [2] was “B (a compound having 3 or more and less than 10 is denoted as B)”. In addition, the “HRAS /KRAS” value at HRAS wild-type protein is “C (A compound having a KD ratio of 0.1 or more and less than 3 is denoted as C)”.
Consider `CCCN1C(=O)CN(C)C(=O)CNC(=O)[C@H]([C@@H](C)CC)NC(=O)[C@H](CC(C)C)N(C)C(=O)C[C@@H](C(=O)N(C)C)NC(=O)[C@H](C2CCCC2)N(C)C(=O)C2(CCC2)NC(=O)[C@@H]2CCCN2C(=O)[C@H](CCc2ccc(C(F)(F)F)c(Cl)c2)NC(=O)CN(C)C(=O)[C@@H]1Cc1ccc(C(F)(F)F)cc1` [PP0362] ([NMeL]IG[Sar][NPrPhe(4-CF3)][Sar][hPhe(3-Cl-4-CF3)]P[Ac4c][NMeGly(cPent)]D-NMe2; lactam N-11), for which the half-maximal inhibitory concentration (IC50) in assay [1] came to 149 nM. Further, the “NRAS /KRAS” value in assay [2] was “B (a compound having 3 or more and less than 10 is denoted as B)”. For the same compound, at HRAS wild-type protein, the “HRAS /KRAS” value was “B (a compound having 3 or more and less than 10 is denoted as B)”.
The compound `CCCN1C(=O)CN(C)C(=O)CNC(=O)[C@H]([C@@H](C)CC)NC(=O)[C@H](CC(C)C)N(C)C(=O)C[C@@H](C(=O)N(C)C)NC(=O)[C@H](C2CCCC2)N(C)C(=O)C2(CCCC2)NC(=O)[C@@H]2CC(F)(F)CN2C(=O)[C@H](CCc2ccc(C(F)(F)F)c(Cl)c2)NC(=O)CN(C)C(=O)[C@@H]1Cc1ccc(C(F)(F)F)cc1` [PP0363] ([NMeL]IG[Sar][NPrPhe(4-CF3)][Sar][hPhe(3-Cl-4-CF3)][Pro(4,4-F2)][Ac5c][NMeGly(cPent)]D-NMe2; lactam N-11) had an IC50 in assay [1] of 91.4 nM. In addition, in assay [2], the “NRAS /KRAS” value was “B (a compound having 3 or more and less than 10 is denoted as B)”. At HRAS wild-type protein, the “HRAS /KRAS” value is “C (A compound having a KD ratio of 0.1 or more and less than 3 is denoted as C)”.
